Drawing on patent US20220002279A1, “NOVEL IMIDAZOLE DERIVATIVE” (priority 2018, published 2022), this text covers IC50 and MIC for 17 compounds.

≈ marks a conversion by molar mass, not a printed value. Like-named read-outs stand apart in the source and are kept apart here. A value given as a limit tells only on which side of the number the result lay.

Assay [1] addresses T1, Escherichia coli LpxC enzyme (Escherichia coli, UniProt P0A725).
T1 construct: made in house; host or cells: Escherichia coli
T1 sequence (P0A725 1-305): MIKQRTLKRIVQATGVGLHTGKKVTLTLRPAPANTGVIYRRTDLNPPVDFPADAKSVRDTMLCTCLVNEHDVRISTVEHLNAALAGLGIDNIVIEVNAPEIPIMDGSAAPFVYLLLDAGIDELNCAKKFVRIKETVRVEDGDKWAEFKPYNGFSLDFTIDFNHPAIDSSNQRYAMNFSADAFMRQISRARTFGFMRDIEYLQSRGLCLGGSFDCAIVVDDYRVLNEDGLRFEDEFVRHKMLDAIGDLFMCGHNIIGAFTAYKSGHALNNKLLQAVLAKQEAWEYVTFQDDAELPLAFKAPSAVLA
Put plainly: Inhibitory activity on Escherichia coli LpxC enzyme (fluorescamine method). It is filed as biochemical. The gist of the method:
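LpxC reacted with UDP-3-O-(R-3-hydroxymyristoyl)-N-acetylglucosamine; product amine quantified after fluorescamine stop and pH 8.0 phosphate buffer addition, at 390 nm/495 nm. Inhibition curve built from a range of test compound concentrations.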

Assay [2] has as its system Escherichia coli strain ATCC25922. Put plainly: Antimicrobial activity, MIC by broth microdilution. Conditions: ATCC25922, 18 h, cation-adjusted Mueller-Hinton broth, about 5×10^5 CFU/mL, 35° C., about 18 hours, read-out: MIC Escherichia coli ATCC25922. Format: cell-based. The gist of the method: (§1)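 CLSI-based broth microdilution in cation-adjusted Mueller-Hinton broth, inoculum about 5×10^5 CFU/mL from overnight heart infusion agar culture. Incubation 35° C. about 18 h; MIC is the lowest concentration with no visible growth.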

Assay [3] relates to Klebsiella pneumoniae strain ATCC13883. Put plainly: Antimicrobial activity, MIC by broth microdilution. Particulars: ATCC13883, cation-adjusted Mueller-Hinton broth, about 5×10^5 CFU/mL, 35° C., about 18 hours, read-out: MIC Klebsiella pneumoniae ATCC13883. It is filed as cell-based. The gist of the method:
as §1

Assay [4] relates to Pseudomonas aeruginosa strain ATCC27853. In words: Antimicrobial activity, MIC by broth microdilution. Format: cell-based. Particulars: ATCC27853, 18 h, cation-adjusted Mueller-Hinton broth, about 5×10^5 CFU/mL, 35° C., about 18 hours, read-out: MIC Pseudomonas aeruginosa ATCC27853. A digest of the protocol: as §1
The mark [5] stands for this setting: fluorescamine detection, 3.1 nmol/L enzyme, 20 μmol/L substrate, pH 6.5, 120 min, read-out: IC50 (inhibitory activity on Escherichia coli LpxC enzyme, Fluoresamine method).

As to `COCC1CC1C#Cc1ccc(-c2cc([C@@H](CN)n3ccnc3[C@H](C)O)no2)cc1` (relative stereo) [Compound 74, (1S)-1-(1-{(1R)-2-amino-1-[5-(4-{[trans-2-(methoxymethyl)cyclopropyl]ethynyl}phenyl)-1,2-oxazol-3-yl]ethyl}-1H-imidazol-2-yl)ethan-1-ol], in assay [1] (setting [5]), the IC50 is 39.6 nM. The MIC in assay [2] worked out at 0.12 µg/mL (≈ 0.295 µM); in assay [3], 0.25 µg/mL (≈ 0.615 µM); in assay [4], 16 µg/mL (≈ 39.4 µM).

Regarding `C[C@H](O)c1nccn1Cc1cc(-c2ccc(C#C[C@@H]3[C@H]4CN(C=O)C[C@@H]34)cc2)no1` [Compound 102, (1R,5S,6s)-6-({4-[5-({2-[(1S)-1-hydroxyethyl]-1H-imidazol-1-yl}methyl)-1,2-oxazol-3-yl]phenyl}ethynyl)-3-azabicyclo[3.1.0]hexane-3-carbaldehyde], the IC50 in assay [1] (setting [5]) is 103 nM. Further, the results for the MIC in assay [2], in assay [3] and in assay [4] were 0.5 µg/mL (≈ 1.24 µM), 1 µg/mL (≈ 2.48 µM) and 64 µg/mL (≈ 159 µM), respectively.

For `C[C@H](O)c1nccn1Cc1cc(-c2ccc(C#C[C@@H]3[C@H]4CN(C5COC5)C[C@@H]34)cc2)on1` [Compound 59, (1S)-1-(1-{[5-(4-{[(1R,5S,6s)-3-(Oxetan-3-yl)-3-azabicyclo[3.1.0]hexan-6-yl]ethynyl}phenyl)-1,2-oxazol-3-yl]methyl}-1H-imidazol-2-yl)ethan-1-ol], in assay [1], the IC50 was found to be 35.5 nM. Besides, the MIC in assay [2] was 0.5 µg/mL (≈ 1.16 µM); in assay [3] it was 0.5 µg/mL (≈ 1.16 µM); in assay [4], greater than 16 µg/mL.

`COCC(O)CN1C[C@@H]2[C@@H](C#Cc3ccc(-c4cc(Cn5ccnc5[C@H](C)O)no4)cc3)[C@@H]2C1` (stereo partly drawn) [Compound 57, 1-[(1R,5S,6s)-6-({4-[3-((2-[(1S)-1-hydroxyethyl]-1H-imidazol-1-yl}methyl)-1,2-oxazol-5-yl]phenyl}ethynyl)-3-azabicyclo[3.1.0]hexan-3-yl]-3-methoxypropan-2-ol]: the IC50 in assay [1] (setting [5]) is 71 nM. Moreover, the MIC in assay [2] amounted to 0.5 µg/mL (≈ 1.08 µM); in assay [3] it was 0.5 µg/mL (≈ 1.08 µM); in assay [4], 8 µg/mL (≈ 17.3 µM).

In the case of `CC(=O)N[C@H]1C[C@H](C#Cc2ccc(-c3cc(Cn4ccnc4[C@H](C)O)no3)cc2)C1` [Compound 87, N-[trans-3-({4-[3-({2-[(1S)-1-hydroxyethyl]-1H-imidazol-1-yl}methyl)-1,2-oxazol-5-yl]phenyl}ethynyl)cyclobutyl]acetamide], the IC50 in assay [1] (setting [5]) was 25.2 nM. For the same compound, the values for the MIC in assay [2], in assay [3] and in assay [4] were 0.5 µg/mL (≈ 1.24 µM), 1 µg/mL (≈ 2.47 µM) and greater than 128 µg/mL, respectively.

With `C[C@H](O)C(=O)N1C[C@@H]2[C@@H](C#Cc3ccc(-c4cc(Cn5ccnc5[C@H](C)O)no4)cc3)[C@@H]2C1` [Compound 77, (2S)-2-hydroxy-1-[(1R,5S,6R)-6-({4-[3-({2-[(1S)-1-hydroxyethyl]-1H-imidazol-1-yl}methyl)-1,2-oxazol-5-yl]phenyl}ethynyl)-3-azabicyclo[3.1.0]hexan-3-yl]propan-1-one], the IC50 in assay [1] (setting [5]) is 67.4 nM. Besides, the MIC was found to be 2 µg/mL (≈ 4.48 µM) in assay [2], 2 µg/mL (≈ 4.48 µM) in assay [3] and 32 µg/mL (≈ 71.7 µM) in assay [4].

With `C[C@H](O)c1nccn1Cc1cc(-c2ccc(C#C[C@@H]3[C@H]4CN(CCCC(=O)O)C[C@@H]34)cc2)no1` [Compound 111, 4-[(1R,5S,6s)-6-({4-[5-({2-[(1S)-1-hydroxyethyl]-1H-imidazol-1-yl}methyl)-1,2-oxazol-3-yl]phenyl}ethynyl)-3-azabicyclo[3.1.0]hexan-3-yl]butanoic acid], the IC50 in assay [1] (setting [5]) was 197 nM. The MIC in assay [2] was 1 µg/mL (≈ 2.17 µM); in assay [3], 4 µg/mL (≈ 8.69 µM); in assay [4], 8 µg/mL (≈ 17.4 µM).

For the compound `COCC1CC1C#Cc1ccc(-c2cc(Cn3ccnc3[C@H](C)O)no2)cc1` (stereo in doubt) [Compound 66, (1S)-1-(1-{[5-(4-{[trans-2-(Methoxymethyl)cyclopropyl]ethynyl}phenyl)-1,2-oxazol-3-yl]methyl}-1H-imidazol-2-yl)ethan-1-ol], the IC50 in assay [1] is less than 10 nM. In addition, the results for the MIC in assay [2], in assay [3] and in assay [4] were 0.12 µg/mL (≈ 0.318 µM), 0.12 µg/mL (≈ 0.318 µM) and 32 µg/mL (≈ 84.8 µM), respectively.

In the case of `CC(O)CN1CCC(C#Cc2ccc(-c3cc(Cn4ccnc4[C@H](C)O)no3)cc2)CC1` (stereo partly drawn) [Compound 128, 1-[4-((4-[3-({2-[(1S)-1-hydroxyethyl]-1H-imidazol-1-yl]methyl)-1,2-oxazol-5-yl]phenyl}ethynyl)piperidin-1-yl]propan-2-ol], in assay [1] (setting [5]), the IC50 was determined as 331 nM. Besides, the MIC in assay [2] is 8 µg/mL (≈ 18.4 µM); in assay [3], 16 µg/mL (≈ 36.8 µM); in assay [4], greater than 128 µg/mL.

`C[C@H](O)c1nccn1Cc1cc(-c2ccc(C#C[C@@H]3[C@H]4CN(S(C)(=O)=O)C[C@@H]34)cc2)on1` [Compound 72, (1S)-1-(1-{[5-(4-{[(1R,5S,6s)-3-(Methanesulfonyl)-3-azabicyclo[3.1.0]hexan-6-yl]ethynyl}phenyl)-1,2-oxazol-3-yl]methyl}-1H-imidazol-2-yl)ethan-1-ol]: the IC50 in assay [1] (setting [5]) was 112 nM. Besides, the MIC is 0.5 µg/mL (≈ 1.1 µM) in assay [2], 1 µg/mL (≈ 2.21 µM) in assay [3] and greater than 16 µg/mL in assay [4].

Regarding `COCCN1CC(C)(C#Cc2ccc(-c3cc(Cn4ccnc4[C@H](C)O)no3)cc2)C1` [Compound 41, (1S)-1-(1-{[5-(4-{[l-(2-methoxyethyl)-3-methylazetidin-3-yl]ethynyl}phenyl)-1,2-oxazol-3-yl]methyl}-1H-imidazol-2-yl)ethan-1-ol], the IC50 in assay [1] (setting [5]) is 231 nM. Besides, the MIC in assay [2] was 2 µg/mL (≈ 4.76 µM); in assay [3] it was 4 µg/mL (≈ 9.51 µM); in assay [4], greater than 128 µg/mL.

As for `C[C@H](O)c1nccn1Cc1cc(-c2ccc(C#C[C@@H]3[C@H]4CN(C(=O)CCC(=O)O)C[C@@H]34)cc2)on1` [Compound 95, 4-[(1R,5S,6s)-6-({4-[3-({2-[(1S)-1-hydroxyethyl]-1H-imidazol-1-yl}methyl)-1,2-oxazol-5-yl]phenyl}ethynyl)-3-azabicyclo[3.1.0]hexan-3-yl]-4-oxobutanoic acid], the IC50 in assay [1] (setting [5]) was 134 nM. The MIC in assay [2] was 2 µg/mL (≈ 4.21 µM); in assay [3], 4 µg/mL (≈ 8.43 µM); in assay [4], 16 µg/mL (≈ 33.7 µM).

For the compound `C[C@H](O)c1nccn1Cc1cc(-c2ccc(C#CC3CCS(=O)(=O)C3)cc2)on1` (stereo partly drawn) [Compound 119, 3-((4-(3-((2-((S)-1-hydroxyethyl)-1H-imidazol-1-yl)methyl)isoxazol-5-yl)phenyl)ethynyl)tetrahydrothiophene 1,1-dioxide], in assay [1] (setting [5]), the IC50 amounted to 265 nM. For the same compound, the MIC was 8 µg/mL (≈ 19.4 µM) in assay [2], 16 µg/mL (≈ 38.9 µM) in assay [3] and greater than 128 µg/mL in assay [4].

As to `CNCCC(=O)N1C[C@@H]2[C@@H](C#Cc3ccc(-c4cc(Cn5ccnc5[C@H](C)O)no4)cc3)[C@@H]2C1` [Compound 63, 1-[(1R,5S,6s)-6-({4-[3-({2-[(1S)-1-hydroxyethyl]-1H-imidazol-1-yl}methyl)-1,2-oxazol-5-yl]phenyl}ethynyl)-3-azabicyclo[3.1.0]hexan-3-yl]-3-(methylamino)propan-1-one], in assay [1] (setting [5]), the IC50 is 105 nM. Further, the MIC in assay [2] was 8 µg/mL (≈ 17.4 µM); in assay [3] it was 16 µg/mL (≈ 34.8 µM); in assay [4], 8 µg/mL (≈ 17.4 µM).

On to `C[C@H](O)c1nccn1Cc1cc(-c2ccc(C#C[C@@H]3[C@H]4CN(C)C[C@@H]34)cc2)on1` [Compound 36, (1S)-1-(1-{[5-(4-{[(1R,5S,6s)-3-methyl-3-azabicyclo[3.1.0]hexan-6-yl]ethynyl}phenyl)-1,2-oxazol-3-yl]methyl}-1H-imidazol-2-yl)ethan-1-ol], for which, in assay [1] (setting [5]), the IC50 turned out to be 98.7 nM. In addition, the MIC in assay [2] worked out at 0.5 µg/mL (≈ 1.29 µM); in assay [3] it was 1 µg/mL (≈ 2.57 µM); in assay [4] it was 16 µg/mL (≈ 41.2 µM).

Consider `C[C@H](O)c1nccn1Cc1cc(-c2ccc(C#C[C@@H]3[C@H]4CN(C(N)=O)C[C@@H]34)cc2)on1` [Compound 71, (1R,5S,6s)-6-({4-[3-({2-[(1S)-1-Hydroxyethyl]-1H-imidazol-1-yl}methyl)-1,2-oxazol-5-yl]phenyl}ethynyl)-3-azabicyclo[3.1.0]hexane-3-carboxamide], for which the IC50 in assay [1] (setting [5]) turned out to be 29 nM. The MIC was 1 µg/mL (≈ 2.4 µM) in assay [2], 2 µg/mL (≈ 4.79 µM) in assay [3] and greater than 16 µg/mL in assay [4].

Take `C[C@H](O)c1nccn1Cc1cc(-c2ccc(C#C[C@@H]3[C@H]4CN(CCCCCC(=O)O)C[C@@H]34)cc2)on1` [Compound 94, 6-[(1R,5S,6s)-6-({4-[3-({2-[(1S)-1-hydroxyethyl]-1H-imidazol-1-yl}methyl)-1,2-oxazol-5-yl]phenyl}ethynyl)-3-azabicyclo[3.1.0]hexan-3-yl]hexanoic acid]: the IC50 in assay [1] (setting [5]) came to 412 nM. Also, the MIC in assay [2] amounted to 2 µg/mL (≈ 4.09 µM); in assay [3], 4 µg/mL (≈ 8.19 µM); in assay [4], 16 µg/mL (≈ 32.7 µM).
